Source: the kinase profiling compilation of Christmann-Franck et al. (2016)

Key:
Assay in all cases: radiometric filter-binding kinase assay, Kinase HotSpot
CDK7 CCNH MNAT1 (human) = CDK7 CCNH MNAT1 (human) (UniProt P50613+P51948+P51946); details: compound 0.5 µM
EPHA8 (human) = EPHA8 (human) (UniProt P29322); details: compound 0.5 µM; ATP 10 µM
EPHB1 (human) = EPHB1 (human) (UniProt P54762); details: compound 0.5 µM; ATP 10 µM
MKNK2 (human) = MKNK2 (human) (UniProt Q9HBH9); details: compound 0.5 µM; ATP 10 µM
FGFR2 (human) = FGFR2 (human) (UniProt P21802); details: compound 0.5 µM; ATP 10 µM
HIPK3 (human) = HIPK3 (human) (UniProt Q9H422); details: compound 0.5 µM; ATP 10 µM
AKT2 (human) = AKT2 (human) (UniProt P31751); details: compound 0.5 µM; ATP 10 µM
STK10 (human) = STK10 (human) (UniProt O94804); details: compound 0.5 µM; ATP 10 µM
MYLK2 (human) = MYLK2 (human) (UniProt Q9H1R3); details: compound 0.5 µM; ATP 10 µM
STK24 (human) = STK24 (human) (UniProt Q9Y6E0); details: compound 0.5 µM; ATP 10 µM
CDK4 CCND1 (human) = CDK4 CCND1 (human) (UniProt P24385+P11802); details: compound 0.5 µM
TAOK2 (human) = TAOK2 (human) (UniProt Q9UL54); details: compound 0.5 µM; ATP 10 µM
PLK2 (human) = PLK2 (human) (UniProt Q9NYY3); details: compound 0.5 µM; ATP 10 µM
STK3 (human) = STK3 (human) (UniProt Q13188); details: compound 0.5 µM; ATP 10 µM
ITK (human) = ITK (human) (UniProt Q08881); details: compound 0.5 µM; ATP 10 µM
DDR2 (human) = DDR2 (human) (UniProt Q16832); details: compound 0.5 µM; ATP 10 µM
HCK (human) = HCK (human) (UniProt P08631); details: compound 0.5 µM; ATP 10 µM
TSSK2 (human) = TSSK2 (human) (UniProt Q96PF2); details: compound 0.5 µM; ATP 10 µM
MAPKAPK2 (human) = MAPKAPK2 (human) (UniProt P49137); details: compound 0.5 µM; ATP 10 µM
PRKD2 (human) = PRKD2 (human) (UniProt Q9BZL6); details: compound 0.5 µM; ATP 10 µM
FGFR4 (human) = FGFR4 (human) (UniProt P22455); details: compound 0.5 µM; ATP 10 µM
IRAK1 (human) = IRAK1 (human) (UniProt P51617); details: compound 0.5 µM; ATP 10 µM
BMX (human) = BMX (human) (UniProt P51813); details: compound 0.5 µM; ATP 10 µM
NUAK2 (human) = NUAK2 (human) (UniProt Q9H093); details: compound 0.5 µM; ATP 10 µM
SRC (human) = SRC (human) (UniProt P12931); details: compound 0.5 µM; ATP 10 µM
BLK (human) = BLK (human) (UniProt P51451); details: compound 0.5 µM; ATP 10 µM
PRKCD (human) = PRKCD (human) (UniProt Q05655); details: compound 0.5 µM; ATP 10 µM
DCLK2 (human) = DCLK2 (human) (UniProt Q8N568); details: compound 0.5 µM; ATP 10 µM
MAPK9 (human) = MAPK9 (human) (UniProt P45984); details: compound 0.5 µM; ATP 10 µM
IGF1R (human) = IGF1R (human) (UniProt P08069); details: compound 0.5 µM
DMPK (human) = DMPK (human) (UniProt Q09013); details: compound 0.5 µM; ATP 10 µM
SRPK3 (human) = SRPK3 (human) (UniProt Q9UPE1); details: compound 0.5 µM; ATP 10 µM
VRK1 (human) = VRK1 (human) (UniProt Q99986); details: compound 0.5 µM; ATP 10 µM
PTK6 (human) = PTK6 (human) (UniProt Q13882); details: compound 0.5 µM; ATP 10 µM
CDK4 CCND3 (human) = CDK4 CCND3 (human) (UniProt P30281+P11802); details: compound 0.5 µM
NEK2 (human) = NEK2 (human) (UniProt P51955); details: compound 0.5 µM; ATP 10 µM
CSNK1E (human) = CSNK1E (human) (UniProt P49674); details: compound 0.5 µM; ATP 10 µM
MAPK12 (human) = MAPK12 (human) (UniProt P53778); details: compound 0.5 µM; ATP 10 µM
SYK (human) = SYK (human) (UniProt P43405); details: compound 0.5 µM; ATP 10 µM
PRKCB2 (human) = PRKCB2 (human) (UniProt P05771); details: compound 0.5 µM; ATP 10 µM
BTK (human) = BTK (human) (UniProt Q06187); details: compound 0.5 µM; ATP 10 µM
MAPK8 (human) = MAPK8 (human) (UniProt P45983); details: compound 0.5 µM; ATP 10 µM

Sequence of STK24 (human) (Q9Y6E0 whole entry, looked up): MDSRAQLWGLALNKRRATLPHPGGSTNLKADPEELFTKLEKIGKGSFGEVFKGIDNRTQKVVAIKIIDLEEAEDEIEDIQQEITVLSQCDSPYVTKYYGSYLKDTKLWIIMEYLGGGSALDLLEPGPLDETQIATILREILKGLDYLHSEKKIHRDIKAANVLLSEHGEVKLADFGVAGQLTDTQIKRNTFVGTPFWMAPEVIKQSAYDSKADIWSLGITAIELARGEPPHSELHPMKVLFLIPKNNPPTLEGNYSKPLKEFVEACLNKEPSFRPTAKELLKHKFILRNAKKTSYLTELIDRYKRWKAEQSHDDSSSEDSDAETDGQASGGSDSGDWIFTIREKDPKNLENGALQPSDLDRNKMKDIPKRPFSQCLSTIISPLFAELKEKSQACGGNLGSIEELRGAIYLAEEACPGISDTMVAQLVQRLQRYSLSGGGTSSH
Sequence of IGF1R (human) (P08069 whole entry, looked up): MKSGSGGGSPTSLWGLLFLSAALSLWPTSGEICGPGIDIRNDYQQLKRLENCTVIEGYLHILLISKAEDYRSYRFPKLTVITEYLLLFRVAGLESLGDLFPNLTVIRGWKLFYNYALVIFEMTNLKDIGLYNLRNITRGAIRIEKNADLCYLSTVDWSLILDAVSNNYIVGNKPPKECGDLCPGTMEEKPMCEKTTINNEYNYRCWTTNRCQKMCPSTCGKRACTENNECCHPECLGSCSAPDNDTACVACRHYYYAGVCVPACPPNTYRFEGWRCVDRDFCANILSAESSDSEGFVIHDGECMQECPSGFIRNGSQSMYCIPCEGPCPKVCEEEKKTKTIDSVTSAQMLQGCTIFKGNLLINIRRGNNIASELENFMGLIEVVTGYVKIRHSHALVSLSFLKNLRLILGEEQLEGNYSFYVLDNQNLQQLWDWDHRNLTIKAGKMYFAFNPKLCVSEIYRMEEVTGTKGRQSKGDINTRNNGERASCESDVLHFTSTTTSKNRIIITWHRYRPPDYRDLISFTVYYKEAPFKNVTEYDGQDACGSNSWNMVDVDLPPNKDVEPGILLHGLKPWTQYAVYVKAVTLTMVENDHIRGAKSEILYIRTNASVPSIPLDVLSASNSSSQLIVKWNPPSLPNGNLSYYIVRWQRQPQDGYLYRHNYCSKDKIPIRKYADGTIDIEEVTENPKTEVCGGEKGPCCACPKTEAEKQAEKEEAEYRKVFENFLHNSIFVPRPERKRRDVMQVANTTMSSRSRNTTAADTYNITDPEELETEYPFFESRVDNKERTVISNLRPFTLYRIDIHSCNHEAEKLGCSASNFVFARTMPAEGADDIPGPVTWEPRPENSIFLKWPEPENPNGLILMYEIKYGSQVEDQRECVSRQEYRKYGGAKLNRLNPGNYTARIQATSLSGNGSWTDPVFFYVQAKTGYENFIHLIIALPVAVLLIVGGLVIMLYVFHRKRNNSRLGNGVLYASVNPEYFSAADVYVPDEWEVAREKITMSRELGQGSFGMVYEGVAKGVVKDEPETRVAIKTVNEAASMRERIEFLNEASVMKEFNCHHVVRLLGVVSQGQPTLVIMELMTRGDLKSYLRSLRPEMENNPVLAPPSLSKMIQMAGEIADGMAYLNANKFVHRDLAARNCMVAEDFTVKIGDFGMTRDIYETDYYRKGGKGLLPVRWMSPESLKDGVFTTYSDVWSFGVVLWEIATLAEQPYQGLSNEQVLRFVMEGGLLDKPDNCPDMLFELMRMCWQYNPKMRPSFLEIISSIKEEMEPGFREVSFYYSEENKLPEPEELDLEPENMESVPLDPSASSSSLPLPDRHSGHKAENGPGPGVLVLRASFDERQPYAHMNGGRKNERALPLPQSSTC
Sequence of MKNK2 (human) (Q9HBH9 whole entry, looked up): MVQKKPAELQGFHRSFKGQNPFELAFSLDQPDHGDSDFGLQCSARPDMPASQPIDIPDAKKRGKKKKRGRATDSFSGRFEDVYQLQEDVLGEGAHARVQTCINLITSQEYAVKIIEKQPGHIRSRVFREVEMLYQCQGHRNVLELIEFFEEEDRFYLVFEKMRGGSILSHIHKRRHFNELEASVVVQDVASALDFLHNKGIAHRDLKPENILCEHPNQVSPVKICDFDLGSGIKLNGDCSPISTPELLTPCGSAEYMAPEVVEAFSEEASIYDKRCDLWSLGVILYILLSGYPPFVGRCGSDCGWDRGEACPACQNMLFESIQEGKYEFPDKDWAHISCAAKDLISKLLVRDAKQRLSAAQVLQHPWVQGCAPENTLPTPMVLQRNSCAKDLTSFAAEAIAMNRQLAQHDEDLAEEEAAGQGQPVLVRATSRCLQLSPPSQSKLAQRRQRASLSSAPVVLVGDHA
Sequence of MAPKAPK2 (human) (P49137 whole entry, looked up): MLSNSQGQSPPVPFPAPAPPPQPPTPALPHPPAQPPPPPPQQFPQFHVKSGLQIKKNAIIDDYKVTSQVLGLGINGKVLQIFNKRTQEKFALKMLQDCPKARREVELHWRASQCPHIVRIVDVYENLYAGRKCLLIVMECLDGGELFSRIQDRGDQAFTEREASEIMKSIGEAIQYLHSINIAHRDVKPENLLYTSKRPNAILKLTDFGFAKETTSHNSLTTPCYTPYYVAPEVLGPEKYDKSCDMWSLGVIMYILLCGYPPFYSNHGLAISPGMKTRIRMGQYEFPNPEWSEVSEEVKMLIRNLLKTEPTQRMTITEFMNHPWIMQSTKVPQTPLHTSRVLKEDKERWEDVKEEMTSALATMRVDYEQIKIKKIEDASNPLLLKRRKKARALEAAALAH
Sequence of HIPK3 (human) (Q9H422 whole entry, looked up): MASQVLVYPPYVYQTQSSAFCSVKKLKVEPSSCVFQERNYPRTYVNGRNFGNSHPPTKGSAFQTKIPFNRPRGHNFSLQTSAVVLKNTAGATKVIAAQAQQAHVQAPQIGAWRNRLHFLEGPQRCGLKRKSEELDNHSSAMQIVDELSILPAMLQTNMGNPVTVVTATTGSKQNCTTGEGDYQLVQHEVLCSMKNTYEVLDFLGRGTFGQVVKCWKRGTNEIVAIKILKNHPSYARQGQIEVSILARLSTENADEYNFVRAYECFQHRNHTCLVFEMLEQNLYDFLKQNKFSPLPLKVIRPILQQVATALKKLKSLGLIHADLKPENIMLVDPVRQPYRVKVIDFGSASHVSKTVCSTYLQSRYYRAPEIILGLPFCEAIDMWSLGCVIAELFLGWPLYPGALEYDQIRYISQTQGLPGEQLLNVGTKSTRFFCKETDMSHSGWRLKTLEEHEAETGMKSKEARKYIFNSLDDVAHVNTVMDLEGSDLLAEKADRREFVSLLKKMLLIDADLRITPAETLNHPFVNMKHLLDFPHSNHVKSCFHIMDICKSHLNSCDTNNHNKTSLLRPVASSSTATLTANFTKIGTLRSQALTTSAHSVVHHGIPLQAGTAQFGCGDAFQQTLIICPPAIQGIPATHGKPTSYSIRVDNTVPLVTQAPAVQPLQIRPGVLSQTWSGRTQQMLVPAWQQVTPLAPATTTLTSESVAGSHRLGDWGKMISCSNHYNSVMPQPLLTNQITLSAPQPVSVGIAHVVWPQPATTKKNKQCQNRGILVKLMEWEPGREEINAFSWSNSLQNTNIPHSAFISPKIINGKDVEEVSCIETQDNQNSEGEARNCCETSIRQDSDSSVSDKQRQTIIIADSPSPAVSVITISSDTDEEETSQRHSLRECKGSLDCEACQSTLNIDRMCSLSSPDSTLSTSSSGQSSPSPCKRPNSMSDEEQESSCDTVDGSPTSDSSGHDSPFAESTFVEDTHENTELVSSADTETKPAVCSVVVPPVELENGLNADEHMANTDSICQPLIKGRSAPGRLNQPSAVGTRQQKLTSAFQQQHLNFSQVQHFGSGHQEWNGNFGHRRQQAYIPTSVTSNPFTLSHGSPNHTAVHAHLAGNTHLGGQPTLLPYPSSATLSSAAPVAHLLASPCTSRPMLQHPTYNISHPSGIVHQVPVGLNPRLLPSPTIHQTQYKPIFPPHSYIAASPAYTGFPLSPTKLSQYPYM
Sequence of FGFR2 (human) (P21802 whole entry, looked up): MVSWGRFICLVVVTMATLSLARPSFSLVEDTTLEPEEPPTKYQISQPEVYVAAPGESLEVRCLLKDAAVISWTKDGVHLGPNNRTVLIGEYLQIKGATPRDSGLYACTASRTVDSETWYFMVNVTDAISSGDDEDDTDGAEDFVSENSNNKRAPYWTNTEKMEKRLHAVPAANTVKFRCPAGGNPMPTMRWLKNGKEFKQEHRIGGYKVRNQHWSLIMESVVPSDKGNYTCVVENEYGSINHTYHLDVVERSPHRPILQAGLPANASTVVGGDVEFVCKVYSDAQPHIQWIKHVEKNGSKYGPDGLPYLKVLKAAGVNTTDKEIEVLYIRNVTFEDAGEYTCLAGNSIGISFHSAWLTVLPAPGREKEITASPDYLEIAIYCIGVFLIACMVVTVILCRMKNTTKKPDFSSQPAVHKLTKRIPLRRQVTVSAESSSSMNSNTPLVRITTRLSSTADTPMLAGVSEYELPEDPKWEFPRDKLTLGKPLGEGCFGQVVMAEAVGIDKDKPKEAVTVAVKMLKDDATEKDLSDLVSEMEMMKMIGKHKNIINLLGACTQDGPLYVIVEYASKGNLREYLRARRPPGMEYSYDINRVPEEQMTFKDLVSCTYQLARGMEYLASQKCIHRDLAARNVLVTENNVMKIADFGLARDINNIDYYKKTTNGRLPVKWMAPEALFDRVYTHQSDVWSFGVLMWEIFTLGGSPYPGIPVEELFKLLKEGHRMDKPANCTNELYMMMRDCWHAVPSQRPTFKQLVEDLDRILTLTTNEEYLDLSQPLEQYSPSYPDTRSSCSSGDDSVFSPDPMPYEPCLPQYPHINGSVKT
Sequence of TSSK2 (human) (Q96PF2 whole entry, looked up): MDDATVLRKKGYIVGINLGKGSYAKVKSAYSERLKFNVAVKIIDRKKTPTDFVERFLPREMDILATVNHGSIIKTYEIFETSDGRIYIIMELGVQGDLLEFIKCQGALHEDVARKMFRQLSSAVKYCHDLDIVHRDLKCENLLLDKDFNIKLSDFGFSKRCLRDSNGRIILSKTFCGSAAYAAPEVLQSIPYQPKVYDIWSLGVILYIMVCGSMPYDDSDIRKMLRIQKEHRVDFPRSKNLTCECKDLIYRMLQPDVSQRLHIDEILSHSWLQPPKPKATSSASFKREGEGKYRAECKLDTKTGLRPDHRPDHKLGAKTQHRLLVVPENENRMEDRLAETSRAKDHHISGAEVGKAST

O=c1[nH]c2ccccc2n1C1CCN(Cc2ccc(-c3nc4cc5[nH]cnc5cc4nc3-c3ccccc3)cc2)CC1
residual activity (CDK7 CCNH MNAT1 (human)): 99.1% | residual activity (EPHA8 (human)): 106% | residual activity (EPHB1 (human)): 104% | residual activity (MKNK2 (human)): 98.7% | residual activity (FGFR2 (human)): 94.2% | residual activity (HIPK3 (human)): 102% | residual activity (AKT2 (human)): 96.8% | residual activity (STK10 (human)): 92.6% | residual activity (MYLK2 (human)): 103% | residual activity (STK24 (human)): 90.7% | residual activity (CDK4 CCND1 (human)): 108% | residual activity (TAOK2 (human)): 98.8% | residual activity (PLK2 (human)): 95.5% | residual activity (STK3 (human)): 103% | residual activity (ITK (human)): 99.8% | residual activity (DDR2 (human)): 99.2% | residual activity (HCK (human)): 99.6% | residual activity (TSSK2 (human)): 96.2% | residual activity (MAPKAPK2 (human)): 98.7% | residual activity (PRKD2 (human)): 109% | residual activity (FGFR4 (human)): 97.2% | residual activity (IRAK1 (human)): 109% | residual activity (BMX (human)): 108% | residual activity (NUAK2 (human)): 90.4% | residual activity (SRC (human)): 103% | residual activity (BLK (human)): 106% | residual activity (PRKCD (human)): 98.8% | residual activity (DCLK2 (human)): 107% | residual activity (MAPK9 (human)): 91.9% | residual activity (IGF1R (human)): 91.2% | residual activity (DMPK (human)): 98% | residual activity (SRPK3 (human)): 107% | residual activity (VRK1 (human)): 98.3% | residual activity (PTK6 (human)): 91.1% | residual activity (CDK4 CCND3 (human)): 99.7% | residual activity (NEK2 (human)): 96.8% | residual activity (CSNK1E (human)): 107% | residual activity (MAPK12 (human)): 93.1% | residual activity (SYK (human)): 97.9% | residual activity (PRKCB2 (human)): 105% | residual activity (BTK (human)): 98.4% | residual activity (MAPK8 (human)): 89.6%

COc1cccc(-c2cc(=O)c3ccccc3o2)c1N
residual activity (CDK7 CCNH MNAT1 (human); ATP 10 µM): 99.9% | residual activity (EPHA8 (human)): 96.3% | residual activity (EPHB1 (human)): 88% | residual activity (MKNK2 (human)): 108% | residual activity (FGFR2 (human)): 97.8% | residual activity (HIPK3 (human)): 101% | residual activity (AKT2 (human)): 97.4% | residual activity (STK10 (human)): 90.4% | residual activity (MYLK2 (human)): 101% | residual activity (STK24 (human)): 108% | residual activity (CDK4 CCND1 (human); ATP 10 µM): 100% | residual activity (TAOK2 (human)): 96% | residual activity (PLK2 (human)): 92.5% | residual activity (STK3 (human)): 97.1% | residual activity (ITK (human)): 96.5% | residual activity (DDR2 (human)): 92% | residual activity (HCK (human)): 91.6% | residual activity (TSSK2 (human)): 79.7% | residual activity (MAPKAPK2 (human)): 102% | residual activity (PRKD2 (human)): 103% | residual activity (FGFR4 (human)): 104% | residual activity (IRAK1 (human)): 98.8% | residual activity (BMX (human)): 103% | residual activity (NUAK2 (human)): 82.9% | residual activity (SRC (human)): 92.6% | residual activity (BLK (human)): 107% | residual activity (PRKCD (human)): 106% | residual activity (DCLK2 (human)): 88.3% | residual activity (MAPK9 (human)): 89.8% | residual activity (IGF1R (human); ATP 10 µM): 91.3% | residual activity (DMPK (human)): 97.1% | residual activity (SRPK3 (human)): 91% | residual activity (VRK1 (human)): 89.4% | residual activity (PTK6 (human)): 92.6% | residual activity (CDK4 CCND3 (human); ATP 10 µM): 101% | residual activity (NEK2 (human)): 86.1% | residual activity (CSNK1E (human)): 97.5% | residual activity (MAPK12 (human)): 95.5% | residual activity (SYK (human)): 97.2% | residual activity (PRKCB2 (human)): 102% | residual activity (BTK (human)): 83.7% | residual activity (MAPK8 (human)): 95.3%

O=c1c2ccccc2[nH]c(=S)n1CCN1CCC(=C(c2ccc(F)cc2)c2ccc(F)cc2)CC1
residual activity (CDK7 CCNH MNAT1 (human); ATP 10 µM): 99.6% | residual activity (EPHA8 (human)): 102% | residual activity (EPHB1 (human)): 100% | residual activity (MKNK2 (human)): 89.5% | residual activity (FGFR2 (human)): 101% | residual activity (HIPK3 (human)): 97.7% | residual activity (AKT2 (human)): 101% | residual activity (STK10 (human)): 96.2% | residual activity (MYLK2 (human)): 99.9% | residual activity (STK24 (human)): 93.4% | residual activity (CDK4 CCND1 (human); ATP 10 µM): 99.6% | residual activity (TAOK2 (human)): 109% | residual activity (PLK2 (human)): 104% | residual activity (STK3 (human)): 102% | residual activity (ITK (human)): 97.1% | residual activity (DDR2 (human)): 97.6% | residual activity (HCK (human)): 114% | residual activity (TSSK2 (human)): 101% | residual activity (MAPKAPK2 (human)): 106% | residual activity (PRKD2 (human)): 98.9% | residual activity (FGFR4 (human)): 105% | residual activity (IRAK1 (human)): 106% | residual activity (BMX (human)): 85.5% | residual activity (NUAK2 (human)): 106% | residual activity (SRC (human)): 103% | residual activity (BLK (human)): 102% | residual activity (PRKCD (human)): 95.7% | residual activity (DCLK2 (human)): 101% | residual activity (MAPK9 (human)): 97% | residual activity (IGF1R (human); ATP 10 µM): 105% | residual activity (DMPK (human)): 108% | residual activity (SRPK3 (human)): 102% | residual activity (VRK1 (human)): 95.9% | residual activity (PTK6 (human)): 100% | residual activity (CDK4 CCND3 (human); ATP 10 µM): 99% | residual activity (NEK2 (human)): 100% | residual activity (CSNK1E (human)): 100% | residual activity (MAPK12 (human)): 99% | residual activity (SYK (human)): 93.2% | residual activity (PRKCB2 (human)): 98.2% | residual activity (BTK (human)): 105% | residual activity (MAPK8 (human)): 98.9%
